The values below come from EP4219453A1 (Sichuan Kelun-Biotech Biopharmaceutical Co., Ltd., priority 2020, dated 2022).

Where “and” joins values, the source holds several entries; their conditions need not be identical. Equal entries are not always repeated. Where two headings read alike, the source gives them in different places.

The target of one series is T1, hERG (Homo sapiens, UniProt Q12809).
T1 construct: purchased ThermoFisher
The experiment in a line: Biochemical hERG inhibition test, Predictor hERG fluorescence polarization kit. Format: binding. As to conditions: hERG cell membrane, competition with Tracer 1 nM, 10 µM and 1 µM test compound, 2 h. How it is done: Test Example 4: Biochemical hERG inhibition test
• 1. Test system: Kit: Predictor™ hERG fluorescence polarization detection kit (ThermoFisher), the kit contained the following components: positive control compound hERG potassium channel blocker E4031; hERG cell membrane; affinity tracer Tracer; and hERG buffer. • 2. Test parameters: hERG concentration: 1×; Tracer concentration: 1 nM; incubation time: 2 h; BMG PHERAstar FSFP. • 3.
Positive control group: 30 µM positive control compound E4031 was used to replace the test compound, and the experimental method was the same as that of the test group.
Blank control group: hERG buffer was used to replace the test compound without the addition of hERG cell membrane, and the experimental method was the same as that of the test group.
According to the data ratio, the percent inhibition rates (%) of the compounds of the present invention to hERG at different concentrations were calculated, and the ranges of the half inhibitory concentration (IC50) of the compounds were determined.

The target in a further series is TGFβR2 (Homo sapiens, UniProt P37173). The experiment in a line: In vitro enzymatic activity inhibition test (TGFβR2), ADP-Glo Kinase Detection Kit. Format: biochemical. As to conditions: MBP substrate, calculated from percent inhibition at 1000nM, 100nM, 10nM. How it is done: Test Example 2: In vitro enzymatic activity inhibition test (TGFβR2).
Chain of TGFβR2 (P37173 23-567): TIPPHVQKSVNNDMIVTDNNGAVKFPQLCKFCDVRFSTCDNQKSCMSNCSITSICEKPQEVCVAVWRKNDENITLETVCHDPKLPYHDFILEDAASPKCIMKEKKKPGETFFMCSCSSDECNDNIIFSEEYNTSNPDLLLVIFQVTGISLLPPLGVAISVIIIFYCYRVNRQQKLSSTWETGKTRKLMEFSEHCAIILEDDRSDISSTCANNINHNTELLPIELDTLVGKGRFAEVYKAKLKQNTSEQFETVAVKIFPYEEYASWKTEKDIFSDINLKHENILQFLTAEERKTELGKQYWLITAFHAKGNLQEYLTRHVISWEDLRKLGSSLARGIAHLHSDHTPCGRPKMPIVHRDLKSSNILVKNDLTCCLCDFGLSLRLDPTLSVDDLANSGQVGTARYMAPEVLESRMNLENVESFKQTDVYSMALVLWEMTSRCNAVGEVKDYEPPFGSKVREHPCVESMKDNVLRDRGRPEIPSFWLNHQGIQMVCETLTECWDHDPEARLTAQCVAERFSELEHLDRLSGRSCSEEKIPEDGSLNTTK
Experimental method: According to the instructions of ADP-Glo™ Kinase Detection Kit (Promega), the inhibitory effect of the compounds of the present invention on the enzymatic activity of TGFβR2 was determined, and the steps were as follows: TGFβR2 enzyme were pre-incubated with different concentrations of test compounds (1000nM, 100nM, 10nM) at 30°C for 30 min, myelin basic protein (MBP) and adenosine triphosphate (ATP) were added to initiate the reaction. The incubation was performed at 30°C for 3 h, followed by an addition of ADP-Glo™ reagent and incubated at room temperature for 90 min, kinase detection reagent was then added. The chemiluminescence signal values were detected after incubation at room temperature for another 30 min.
When the percent inhibition was between 30% and 80%, the median inhibitory concentration (IC50) or range of the compound was calculated according to the following formula: IC50 = X × (1 - percent inhibition rate (%)) / percent inhibition rate (%), wherein X is the concentration of the compound at which the inhibition rate is between 30% and 80%.

Series [1] has as its system TGFβ/Smads signaling pathway in HEK293-SBE cells. The experiment in a line: In vitro cell activity inhibition test, Bright-Glo luciferase reporter in HEK293-SBE cells. To be noted: TGFβ 0.5 ng/ml, luciferase reporter gene method. Format: cell-based. How it is done:
Test Example 3: In vitro cell activity inhibition test
Experimental method: According to the instructions of Bright-Glo™ luciferase detection kit (Promega), the inhibitory effect of the compounds of the present invention on TGFβ/Smads signaling pathway in HEK293-SBE cells was determined. The steps were as follows: HEK293-SBE cells (Bps bioscience) were added to a 96-well plate (10% FBS medium), 30,000/well, and cultured overnight at 37°C and 5% CO2. The medium was changed to 0.5% FBS medium, and the test compound diluted in 0.5% FBS medium was added. The highest final concentration of the test compound was 10 µM with 4-fold dilution, and a total of 8 concentration gradients. After 4-5 hours of incubation, 10 µl of TGFβ was added. The final concentration of TGFβ was 0.5 ng/ml. 10 µl of medium added in replace of TGFβ was the negative control. In the blank control, no test compound was added, and TGFβ was added. Bright Glo reagent was added to each well, and the chemiluminescence signal value was read on a microplate reader.
The percent inhibition rates of the test compound at different concentrations were plotted against the compound concentrations, the curve was fitted according to the four-parameter model, and the IC50 value was calculated by the following formula: y = Min + (Max - Min) / (1 + (x / IC50) ^ (-Hillslope)), wherein: y is percentage inhibition rate; Max and Min are the maximum and minimum values of the fitted curve, respectively; x is the logarithmic concentration of compound; and Hillslope is the slope of the curve.
(A reporter such as luciferase makes a cellular process visible.)

Series [2] is described as follows: Pharmacokinetics (PK) study in Balb/c mice. Format: in vivo. To be noted: female Balb/c mice; for F: PO 10 mg/kg compared with IV 1 mg/kg. How it is done:
Test Example 6: Pharmacokinetics (PK) study in Balb/c mice
The example compounds were administered to female Balb/c mice via intravenous injection (IV) and gastric perfusion (PO), respectively, and their pharmacokinetic properties were investigated. The administered doses for IV and PO were 1 mg/kg and 10 mg/kg, respectively. The solvent for IV was 5% DMSO + 5% Solutol (15-hydroxystearic acid polyethylene glycol ester) + 90% normal saline, the solvent for PO was 0.5% MC ([…] methylcellulose). Whole blood samples were collected at various time points after IV and PO administration, and subjected to EDTA-K2 anticoagulation before test.
Whole blood samples were processed by precipitating proteins and then subjected to LC-MS/MS analysis. The pharmacokinetic parameters were calculated by the non-compartmental model using WinNonlin 6.3 software, and the results were shown in Table 6 below. Table 6. Pharmacokinetic parameters of compounds in whole blood in mice

The mark [3] stands for this setting: mouse, IV, 1 mg/kg, whole blood.
Where [4] appears, read: mouse, IV, 1 mg/kg, whole blood, read-out: Cmax.
Setting [5] is: mouse, PO, 10 mg/kg, whole blood.
Setting [6] is: mouse, PO, 10 mg/kg, whole blood, read-out: Cmax.
[7] abbreviates: PO, 10 mg/kg, whole blood, listed as Example VI.

T1 sequence (Q12809 whole entry): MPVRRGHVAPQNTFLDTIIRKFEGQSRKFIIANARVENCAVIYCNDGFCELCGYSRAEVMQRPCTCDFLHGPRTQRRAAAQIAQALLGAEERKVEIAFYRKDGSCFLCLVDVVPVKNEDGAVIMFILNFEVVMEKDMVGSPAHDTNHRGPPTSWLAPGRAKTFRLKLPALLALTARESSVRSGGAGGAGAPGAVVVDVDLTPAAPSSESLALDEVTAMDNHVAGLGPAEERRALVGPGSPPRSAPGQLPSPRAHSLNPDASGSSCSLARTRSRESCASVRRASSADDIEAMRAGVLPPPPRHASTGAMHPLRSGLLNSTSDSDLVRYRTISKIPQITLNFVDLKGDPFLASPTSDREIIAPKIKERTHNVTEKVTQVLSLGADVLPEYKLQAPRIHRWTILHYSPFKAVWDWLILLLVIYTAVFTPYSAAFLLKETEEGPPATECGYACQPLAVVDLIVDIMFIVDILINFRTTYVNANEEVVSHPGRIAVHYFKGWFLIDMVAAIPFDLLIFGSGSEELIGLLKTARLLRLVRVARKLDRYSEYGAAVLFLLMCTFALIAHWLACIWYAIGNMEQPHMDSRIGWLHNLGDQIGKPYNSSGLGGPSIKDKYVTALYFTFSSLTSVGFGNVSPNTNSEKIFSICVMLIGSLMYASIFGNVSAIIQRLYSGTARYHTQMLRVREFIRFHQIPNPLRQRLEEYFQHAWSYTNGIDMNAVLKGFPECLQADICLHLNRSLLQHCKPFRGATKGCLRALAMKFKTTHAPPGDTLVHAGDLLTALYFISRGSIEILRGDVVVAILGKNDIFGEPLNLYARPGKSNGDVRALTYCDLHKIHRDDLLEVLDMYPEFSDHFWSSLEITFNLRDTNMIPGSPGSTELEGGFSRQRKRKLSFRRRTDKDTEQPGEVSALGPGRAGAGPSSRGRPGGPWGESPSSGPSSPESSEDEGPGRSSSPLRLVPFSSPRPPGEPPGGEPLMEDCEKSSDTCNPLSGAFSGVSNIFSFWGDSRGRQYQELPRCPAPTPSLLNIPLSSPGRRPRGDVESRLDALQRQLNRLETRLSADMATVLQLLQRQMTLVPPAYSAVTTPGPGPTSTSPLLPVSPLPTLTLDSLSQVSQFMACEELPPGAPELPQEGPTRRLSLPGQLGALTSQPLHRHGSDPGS

For orientation: IC50 means the point on the concentration scale where inhibition reaches its midpoint. Broadly, the AUC(0-t) is the area under the concentration-time curve up to a stated or last time point. Usually clearance stands for a measure of how efficiently the substance is removed, as volume per time. Low values mean a low capacity for elimination, high ones a high capacity for elimination. As a reminder, the Cmax is the peak of the concentration-time curve. One may read the half-life as how long it takes for the measured level to halve. A high value points to slow decline. As to `CNc1cc(-c2ccn3ncc(C(N)=O)c3c2)n(-c2cccc(C)n2)n1` [Example 8, 5-(3-(methylamino)-1-(6-methylpyridin-2-yl)-1H-pyrazol-5-yl)pyrazolo[1,5-a]pyridine-3-carboxamide], the IC50 at hERG is above 10000 nM; on TGFβR2, above 1000 nM; in series [1], 29.9 ± 1.27 nM. Also, in series [2], the F was 98.1% and 98.1±15.0%. In series [2] (PO, 10 mg/kg, whole blood), this compound yielded a T1/2 of 108 ± 21 min. Besides, the results for the AUC(0-t) in series [2] (setting [3]) and in series [2] (setting [5]) were 458 ng·h/mL and 4360 ng·h/mL, respectively. Besides, the clearance in series [2] (setting [3]) was determined as 35 mL/min/kg. Also, the Cmax amounted to 917 ng/mL in series [2] (setting [4]) and 6270 ng/mL in series [2] (setting [6]). In series [2] (setting [5]), this compound had a half-life of 108 min.

As for `Cc1cccc(-n2nc3c(c2-c2ccn4nccc4c2)CCC3)n1` [Example 4, 5-[2-(6-methylpyridin-2-yl)-2,4,5,6-tetrahydrocyclopenteno [c]pyrazol-3-yl]pyrazolo[1,5-a]pyridine], the IC50 is above 10000 nM on hERG and 35 ± 2.69 nM in series [1].

For `Cc1cccc(-n2nc(NC(C)c3ccc(F)cc3)cc2-c2ccn3ncc(C(N)=O)c3c2)n1` (stereo not shown) [Example 10, 5-(3-(1-(4-fluorophenyl)ethylamino)-1-(6-methylpyridin-2-yl)-1H-pyrazol-5-yl)pyridino[1,5-a]pyridine-3-carboxamide], the values for the IC50 (on hERG; on TGFβR2; in series [1]) were above 10000 nM, above 1000 nM and 43.1 ± 4.19 nM, respectively.

As to `Cc1cccc(-n2nc(NCc3ccc(F)cc3)cc2-c2ccn3ncc(C(N)=O)c3c2)n1` [Example 11, 5-(3-(4-fluorobenzylamino)-1-(6-methylpyridin-2-yl)-1H-pyrazol-5-yl)pyrazolo[1,5-a]pyridine-3-carboxamide], the IC50 on hERG was above 10000 nM; on TGFβR2, 593 ± 129 nM; in series [1] it was 19.4 ± 1.52 nM.

For the compound `Cc1cccc(-n2nc3c(c2-c2ccn4ncc(C(N)=O)c4c2)CCC3)n1` [Example 6, 5-[2-(6-methylpyridin-2-yl)-2,4,5,6-tetrahydrocyclopenteno[c]pyrazol-3-yl]pyrazolo[1,5-a]pyridine-3-carboxamide], the IC50 is above 10000 nM on hERG and 20.1 ± 1 nM in series [1]. Further, the AUClast in series [2] (IV, 1 mg/kg, whole blood) was 578 ng·h/mL and 578 ± 4 ng·h/mL; in series [2] (PO, 10 mg/kg, whole blood), 3586 ± 563 ng·h/mL; in series [2] (setting [7]) it was 3586 ng·h/mL. The Cl in series [2] (IV, 1 mg/kg, whole blood) was 28.4 mL/min/kg and 28.4 ± 0.3 mL/min/kg. The Cmax in series [2] (IV, 1 mg/kg, whole blood) was 1163 ng/mL and 1163 ± 58 ng/mL; in series [2] (PO, 10 mg/kg, whole blood), 7440 ± 226 ng/mL; in series [2] (setting [7]) it was 7440 ng/mL. Further, the F is reported as 61.4±9.5% in series [2] and 61.4% in series [2] (listed as Example VI). For the same compound, the T1/2 in series [2] (PO, 10 mg/kg, whole blood) is 27.6 ± 11.4 min; in series [2] (setting [7]) it was 27.6 min.

Take `Cc1cccc(-n2nccc2-c2ccn3ncc(C(N)=O)c3c2)n1` [Example 12, 5-(1-(6-methylpyridin-2-yl)-1H-pyrazol-5-yl)pyrazolo[1,5-a]pyridine-3-carboxamide]: the IC50 was above 10000 nM at hERG, above 1000 nM at TGFβR2 and 26.6 ± 5.43 nM in series [1]. For the same compound, in series [2], the F was 52.1% and 52.1±2.6%. In series [2] (PO, 10 mg/kg, whole blood), this compound gave a T1/2 of 31.2 ± 10.8 min. Further, the AUC(0-t) was determined as 572 ng·h/mL in series [2] (setting [3]) and 3040 ng·h/mL in series [2] (setting [5]). The same compound came in with a clearance in series [2] (setting [3]) of 29.3 mL/min/kg. The Cmax in series [2] (setting [4]) is 862 ng/mL; in series [2] (setting [6]), 5920 ng/mL. Also, the half-life in series [2] (setting [5]) is 31.2 min.
